Assay [1] relates to macrophage cells differentiated from THP-1 cells. As to the kind of experiment: Suppression of TNF-α production by macrophage cells activated by amyloid β peptide aggregate (ELISA). To be noted: 50 μM and 100 μM compound, 24 h pretreatment; 25 μM Aβ aggregate 24 h; FIG. 2. Type of assay: cell-based, human. The method, then:
(§1) 1.4. Evaluation of Activity of Suppressing Activation of Macrophage Cells Induced by Amyloid β Peptide Cells of the human monocytic cell line THP-1 were suspended in RPMI1640 (10% FBS) medium, the cells were seeded in a 96-well plate at 8.0×10^4 cells/well, 100 nM 12-O-tetradecanoylphorbol 13-acetate (PMA, differentiation-inducing factor) was added thereto, and culture was conducted in the presence of 5% CO2 for 24 hours to differentiate the cells into macrophage cells. Thereafter, the medium was exchanged with another RPMI1640 (10% FBS) medium containing either the turmeric extracts (50, 100, and 200 μg/ml), termeronol A (12.5, 25, 50, or 100 μM), or termeronol B (12.5, 25, 50, or 100 μM), and culture was conducted in the presence of 5% CO2 for 24 hours to treat the cells with each specimen. Thereafter, the medium was exchanged with another RPMI1640 (2% FBS) medium containing an aggregate of 25 μM amyloid β peptides (Aβ), and culture was conducted in the presence of 5% CO2 for 24 hours to activate the cells. Thereafter, prostaglandin E2 (PGE2), the tumor necrosis factor α (TNF-α), and interleukin-1β (IL-1β) released in the medium were assayed via ELISA.

The test system is the same in assay [2]. Description: Suppression of IL-1β production by macrophage cells activated by amyloid β peptide aggregate (ELISA). Type of assay: cell-based, human. To be noted: 50 μM and 100 μM compound, 24 h pretreatment; 25 μM Aβ aggregate 24 h; FIG. 3. How it is done:
as §1

The test system is the same in assay [3]. Description: Suppression of PGE2 production by macrophage cells activated by amyloid β peptide aggregate (ELISA). Type of assay: cell-based, human. The conditions noted are these: 12.5 to 100 μM compound, 24 h pretreatment; 25 μM Aβ aggregate 24 h; FIG. 1. The method, then:
as §1

Assay [4] has as its system human neuroblastoma SHSY5Y cells. Description: Cell death of SHSY5Y cells induced by conditioned medium of Aβ-activated macrophage cells (WST-1 assay). The conditions noted are these: macrophage cells pretreated with termeronol B 50 μM 24 h, then 25 μM Aβ 12 h; SHSY5Y 48 h in conditioned medium; vs control (Aβ+); FIG. 4. Type of assay: cell-based. The method, then: Cells of the human monocytic cell line THP-1 were suspended in RPMI1640 (10% FBS) medium, the cells were seeded in a 96-well plate at 8.0×10^4 cells/well, 100 nM 12-O-tetradecanoylphorbol 13-acetate (PMA, differentiation-inducing factor) was added thereto, and culture was conducted in the presence of 5% CO2 for 24 hours to differentiate the cells into macrophage cells. […]
WST-1 assays comprise: adding WST-1 (2-(4-iodophenyl)-3-(4-nitrophenyl)-5-(2,4-disulfophenyl)-2H-tetrazolium, monosodium salt, Dojindo Laboratories) to each well containing cells; conducting culture in a CO2 incubator for a given period of time to generate water-soluble formazan from WST-1 with the activity of dehydrogenase in mitochondria of viable cells; and assaying the concentration of the generated formazan. […] The formazan concentration was determined based on the absorbance at 450 nm using a microplate reader (reference wavelength: 630 nm). […]
In general terms: Tetrazolium dyes change colour on reduction, which living cells bring about.

`CC(C)=CC(=O)CC(C)c1ccc(C)c(O)c1` (stereo not shown) [termeronol A, Termeronol A]: the “enhancement of TNF-α production by Aβ treatment” value in assay [1] was “suppress the enhancement of TNF-α production”. Further, the “enhancement of IL-1β production by Aβ treatment” value in assay [2] is “suppress the enhancement of IL-1β production”. In addition, the “enhancement of PEG2 production by Aβ treatment” value in assay [3] was “suppress the enhancement of PEG2 production”.
Take `CC(C)=CC(=O)CC(C)c1ccc(C)cc1O` (stereo not shown) [termeronol B, Termeronol B]: in assay [1], the “enhancement of TNF-α production by Aβ treatment” value is “suppress the enhancement of TNF-α production”. The “activity of the culture supernatant for inducing cell death of brain neuronal cells” value in assay [4] is “more suppressed”. Moreover, in assay [2], the “enhancement of IL-1β production by Aβ treatment” value was “suppress the enhancement of IL-1β production”. In addition, in assay [3], the “enhancement of PEG2 production by Aβ treatment” value is given as “suppress the enhancement of PEG2 production”.

These data come from patent US12295920B2, “Composition for treatment, prevention, or amelioration of Alzheimer's disease, a composition for suppression of brain nerve cell death, a composition for suppression of microglia activation induced by amyloid β peptide, and a composition for suppression of PGE2, TNF-α, or IL-1β production induced …” (House Wellness Foods Corporation, priority 2018, dated 2025).
